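Grown in 96-well plates, cells were treated for 48 hours with each compound at five concentrations. Insufficient inhibition: endpoint recorded as highest concentration tested. The concentration for 50% growth inhibition is given as GI50.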 Calls of active or inactive are those of the source. Rule as the data show it: active = GI50 up to about 1.1 µM and inactive = higher.
Experiments:
Test in all cases: growth of human tumour cells (NCI), 48 h
KM12 = system: KM12
SW-620 = system: SW-620
RPMI-8226 = system: RPMI-8226
MOLT-4 = system: MOLT-4
A549 = system: A549
HCT-116 = system: HCT-116
SK-MEL-2 = system: SK-MEL-2
HOP-62 = system: HOP-62
SF-539 = system: SF-539
HOP-92 = system: HOP-92
A498 = system: A498
NCI-H23 = system: NCI-H23
OVCAR-3 = system: OVCAR-3
DU-145 = system: DU-145
MDA-MB-231 = system: MDA-MB-231
RXF 393 = system: RXF 393
ACHN = system: ACHN
UACC-257 = system: UACC-257
SF-268 = system: SF-268
OVCAR-5 = system: OVCAR-5

SMILES	GI50 (KM12)	GI50 (SW-620)	GI50 (RPMI-8226)	GI50 (MOLT-4)	GI50 (A549)	GI50 (HCT-116)	GI50 (SK-MEL-2)	GI50 (HOP-62)	GI50 (SF-539)	GI50 (HOP-92)	GI50 (A498)	GI50 (NCI-H23)	GI50 (OVCAR-3)	GI50 (DU-145)	GI50 (MDA-MB-231)	GI50 (RXF 393)	GI50 (ACHN)	GI50 (UACC-257)	GI50 (SF-268)	GI50 (OVCAR-5)
COc1ccccc1C1ON=C(c2ccc([N+](=O)[O-])cc2)N1C12CC3CC(CC(C3)C1)C2 (stereo not given)	> 100 µM (inactive)	> 100 µM (inactive)	20.8 µM (inactive)	17.6 µM (inactive)	94 µM (inactive)	47.5 µM (inactive)	> 100 µM (inactive)	20.4 µM (inactive)	> 100 µM (inactive)	29.2 µM (inactive)	> 100 µM (inactive)	> 100 µM (inactive)	> 100 µM (inactive)	> 100 µM (inactive)	> 100 µM (inactive)	12.1 µM (inactive)	> 100 µM (inactive)	> 100 µM (inactive)	> 100 µM (inactive)	44.7 µM (inactive)
CC12CCC(C(Nc3ccccn3)C1=O)C2(C)C (stereo not given)	> 100 µM (inactive)	> 100 µM (inactive)	> 100 µM (inactive)	> 100 µM (inactive)	> 100 µM (inactive)	> 100 µM (inactive)	> 100 µM (inactive)	> 100 µM (inactive)	> 100 µM (inactive)	> 100 µM (inactive)	> 100 µM (inactive)	> 100 µM (inactive)	> 100 µM (inactive)	> 100 µM (inactive)	> 100 µM (inactive)	> 100 µM (inactive)	> 100 µM (inactive)	> 100 µM (inactive)	> 100 µM (inactive)	> 100 µM (inactive)
CN(C)C[C@H]1CC[C@@H](CN(C)C)C1=O	16.9 µM (inactive)	2.11 µM (inactive)	0.535 µM (active)	1.23 µM (inactive)	> 50 µM (inactive)	8.32 µM (inactive)	7.73 µM (inactive)	> 50 µM (inactive)	10 µM (inactive)	8.47 µM (inactive)	49.2 µM (inactive)	9.4 µM (inactive)	9.06 µM (inactive)	24.3 µM (inactive)	9.86 µM (inactive)	9.29 µM (inactive)	8.32 µM (inactive)	8.47 µM (inactive)	11.2 µM (inactive)	8.79 µM (inactive)
CC(=O)NCc1nc(C#N)c(N)o1	> 100 µM (inactive)	> 100 µM (inactive)	> 100 µM (inactive)	> 100 µM (inactive)	> 100 µM (inactive)	> 100 µM (inactive)	> 100 µM (inactive)	> 100 µM (inactive)	> 100 µM (inactive)	> 100 µM (inactive)	> 100 µM (inactive)	> 100 µM (inactive)	> 100 µM (inactive)	> 100 µM (inactive)	> 100 µM (inactive)	> 100 µM (inactive)	> 100 µM (inactive)	> 100 µM (inactive)	> 100 µM (inactive)	> 100 µM (inactive)
COc1ccc2c(C(=O)c3cn(CCN4CCOCC4)c4ccccc34)cccc2c1	3.95 µM (inactive)	31 µM (inactive)	21.2 µM (inactive)	15.1 µM (inactive)	6.76 µM (inactive)	27.2 µM (inactive)	> 100 µM (inactive)	> 22 µM (inactive)	> 80 µM (inactive)	> 100 µM (inactive)	> 100 µM (inactive)	> 100 µM (inactive)	13.6 µM (inactive)	> 23.6 µM (inactive)	> 100 µM (inactive)	> 67.6 µM (inactive)	> 96.4 µM (inactive)	75.9 µM (inactive)	> 80.2 µM (inactive)	> 100 µM (inactive)
CC(=O)Oc1c(C)c2c(c3ncccc13)OC(C)C2 (stereo not given)	15.1 µM (inactive)	14.2 µM (inactive)	16.7 µM (inactive)	6.41 µM (inactive)	13.4 µM (inactive)	14.9 µM (inactive)	18.1 µM (inactive)	17.1 µM (inactive)	15 µM (inactive)	14.7 µM (inactive)	20 µM (inactive)	17.3 µM (inactive)	32.4 µM (inactive)	16.2 µM (inactive)	11.5 µM (inactive)	14.8 µM (inactive)	11.8 µM (inactive)	14.8 µM (inactive)	14.4 µM (inactive)	17.2 µM (inactive)
